Tested on: Mouse
Assay: Mouse Tetrabenazine Antagonism Assay (TBZ 32 mg/kg i.p.; exploratory activity and reversal of ptosis)
Format: in vivo
Conditions: mice, (1:1) fumarate salt
Method: In this test, mice are injected with a test compound 30 min prior to the injection of 32 mg/kg i.p. of TBZ, a drug which decreases normal exploratory activity and induces ptosis. After 30 min. the mice are tested for two parameters: the presence of normal exploratory activity (EA) and reversal of ptosis (Pt). A control group of mice is given only 32 mg/kg i.p. of TBZ. The biological activity of the novel compounds of this invention may be understood by the representative, nonlimiting example, presented in Table I.

[1] = @ 3 mg/kg i.p., 30 min before 32 mg/kg i.p. TBZ

Compound: O=C(O)/C=C/C(=O)O.c1ccc([C@@H]2CN3CC[C@@H]3c3ccccc32)cc1 (relative stereo) [Example 1d, trans-1,4,5,9b-Tetrahydro-5-phenyl-2H-azeto[2,1-a]isoquinoline (E)-2-butenedioate]
- ED50 (Mus musculus, ip, i.p., TBZ 32 mg/kg i.p.): 1.25 mg/kg
- % inhibition EA (exploratory activity) [1]: 50%
- % inhibition Pt (reversal of ptosis) [1]: 88%
